Experimental findings from PubChem BioAssay (NCI) are described below.

Test systems include HOP-62 NSCLC; SNB-75 CNS; COLO 205 colon; SNB-19 CNS; NCI/ADR-RES ovarian; 786-0 renal; MDA-MB-435; SF-268 CNS; TK-10 renal; NCI-H522 lung.
Holding throughout (assay): growth of human tumour cells (NCI), 48 h

Several values for one entry are separate records, joined by “and”; a condition that tells them apart may be missing. Equal values may be shown once.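 Grown in 96-well plates, cells were treated for 48 hours with each compound at five concentrations. Insufficient inhibition: endpoint recorded as highest concentration tested. Abbreviation: GI50, concentration required for 50% inhibition of growth. TGI: total growth inhibition.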 A value given as a limit tells only on which side of the number the result lay.

Turning to `CC1(C)N=C(N)N=C(N)N1c1ccc(OCCCNC(=O)Nc2cccc(S(=O)(=O)F)c2)c(Cl)c1`, the GI50 with HOP-62 NSCLC was 6.04 µM; in the assay with SNB-75 CNS, 2.73 µM; in the assay with COLO 205 colon it was 12.5 µM; in the assay with SNB-19 CNS, 1.22 µM; in the assay on NCI/ADR-RES ovarian, more than 100 µM; with 786-0 renal, 1.11 µM. Moreover, the GI50 with MDA-MB-435 was 2.14 µM; in the assay with SF-268 CNS, 0.596 µM. Moreover, the TGI in the assay with HOP-62 NSCLC, in the assay with SNB-75 CNS, in the assay on COLO 205 colon, in the assay with SNB-19 CNS, in the assay with NCI/ADR-RES ovarian and with 786-0 renal was more than 100 µM each time. Also, the TGI in the assay with MDA-MB-435 and in the assay on SF-268 CNS was more than 100 µM throughout.

Regarding `COc1cccc(-c2cc(=O)c3cc(N4CCOCC4)ccc3[nH]2)c1`, the GI50 in the assay on HOP-62 NSCLC was 0.0791 µM; in the assay with COLO 205 colon, 0.0353 µM; with 786-0 renal, 0.0602 µM; in the assay on TK-10 renal it was 4.84 µM; with NCI-H522 lung, 0.0209 µM; in the assay with SF-268 CNS it was 0.149 µM. The TGI in the assay with HOP-62 NSCLC was more than 100 µM; with COLO 205 colon, 0.0463 µM and 0.234 µM; in the assay with NCI/ADR-RES ovarian it was 0.271 µM and 0.751 µM; with 786-0 renal, more than 100 µM; with TK-10 renal, more than 100 µM; in the assay with NCI-H522 lung it was 0.0395 µM and 0.0852 µM. Besides, the values for the TGI in the assay with MDA-MB-435 and in the assay with SF-268 CNS were 0.0256 µM and 57.6 µM, respectively.

As to `CCCCNS(=O)(=O)c1n[nH]c(=O)[nH]c1=O`, the TGI in the assay on HOP-62 NSCLC, in the assay with SNB-75 CNS, with COLO 205 colon, in the assay on SNB-19 CNS, in the assay with NCI/ADR-RES ovarian and with 786-0 renal was more than 100 µM in each case. Further, the TGI in the assay with NCI-H522 lung, with MDA-MB-435 and in the assay with SF-268 CNS was more than 100 µM each time.

As to `N#CC1=C(N)NC(=S)NC12Nc1ccccc1S2` (centres undefined), the GI50 with SNB-75 CNS was 30.4 µM; in the assay on COLO 205 colon, 24.8 µM; in the assay with SNB-19 CNS, 28.1 µM; in the assay with NCI/ADR-RES ovarian, 26.7 µM; in the assay with 786-0 renal, more than 100 µM; with TK-10 renal, 41.5 µM. Also, the GI50 in the assay with NCI-H522 lung was 21.3 µM; in the assay with MDA-MB-435 it was 19.2 µM. Besides, the TGI in the assay on SNB-75 CNS is more than 100 µM; in the assay with COLO 205 colon, 82.6 µM; in the assay with SNB-19 CNS, more than 100 µM; in the assay with NCI/ADR-RES ovarian it was 88.7 µM; in the assay with 786-0 renal, more than 100 µM; in the assay with TK-10 renal it was more than 100 µM. In addition, the TGI was 70.5 µM with NCI-H522 lung and 47.6 µM in the assay on MDA-MB-435.

Consider `Cc1ccc2cccc(OC(=O)Nc3cccc(C(F)(F)F)c3)c2n1`, for which the GI50 is 5.83 µM in the assay with HOP-62 NSCLC; 2.39 µM with SNB-75 CNS; 3.47 µM in the assay with COLO 205 colon; 2.89 µM with SNB-19 CNS; 3.96 µM in the assay with NCI/ADR-RES ovarian; 4.82 µM with 786-0 renal. Also, the values for the GI50 in the assay on TK-10 renal, with MDA-MB-435 and with SF-268 CNS were 3.87 µM, 2.91 µM and 4.26 µM, respectively. Moreover, the TGI in the assay on HOP-62 NSCLC is 18.6 µM; in the assay on SNB-75 CNS, 11.7 µM; in the assay with COLO 205 colon, 10.3 µM; with SNB-19 CNS, 12.5 µM; with NCI/ADR-RES ovarian it was 33.3 µM; with 786-0 renal, 22.2 µM. Also, the TGI with TK-10 renal amounted to 18.2 µM; in the assay with MDA-MB-435, 10.9 µM; in the assay on SF-268 CNS it was 18.3 µM.

Take `C=C1C(=O)O[C@H]2[C@H](OC(C)=O)[C@@H](C)CCCC3(C)OC3CCC3(CO3)[C@H](O)C[C@@H]12` (some centres undefined): the GI50 in the assay with HOP-62 NSCLC is 21.4 µM; in the assay on SNB-75 CNS, 47 µM; with COLO 205 colon it was 3.8 µM; in the assay with SNB-19 CNS it was 25.7 µM; in the assay with 786-0 renal it was 5.15 µM; in the assay on TK-10 renal, 7.39 µM. In addition, the GI50 in the assay with NCI-H522 lung was 9.6 µM; in the assay with MDA-MB-435 it was 9.24 µM; in the assay with SF-268 CNS it was 15.2 µM. Moreover, the TGI in the assay with HOP-62 NSCLC is 43 µM; with SNB-75 CNS it was more than 100 µM; in the assay on COLO 205 colon, 65.6 µM; with SNB-19 CNS, 83.1 µM; with 786-0 renal, 21 µM; with TK-10 renal, 21.2 µM. The TGI stood at 28.7 µM in the assay with NCI-H522 lung, 28.6 µM with MDA-MB-435 and 40.4 µM in the assay with SF-268 CNS.

In the case of `COc1ccc(/C=C2\COc3ccc(O)c(O)c3C2=O)c(OC)c1OC`, the GI50 with HOP-62 NSCLC was 3.12 µM; in the assay on SNB-75 CNS it was 3.09 µM; with COLO 205 colon it was 2.78 µM; in the assay with SNB-19 CNS, 3.69 µM; in the assay on 786-0 renal it was 2.95 µM; in the assay with TK-10 renal it was 4.03 µM. Moreover, the GI50 with NCI-H522 lung is 0.933 µM; with MDA-MB-435 it was 2.21 µM; with SF-268 CNS, 3.49 µM. The TGI in the assay on HOP-62 NSCLC was found to be 20 µM; with SNB-75 CNS it was 86.6 µM; with COLO 205 colon it was 10 µM; in the assay on SNB-19 CNS, 15.7 µM; in the assay on 786-0 renal, 10.7 µM; in the assay on TK-10 renal, 23.3 µM. In addition, the TGI in the assay with NCI-H522 lung is 3.22 µM; in the assay on MDA-MB-435 it was 6.57 µM; in the assay on SF-268 CNS, 21.3 µM.

Consider `Cn1c2c(c3ccccc31)CCN(CCCCN1CCN(c3ccccc3)CC1)C2=O`, for which the TGI was more than 100 µM in the assay on HOP-62 NSCLC; more than 100 µM in the assay with SNB-75 CNS; 26.2 µM in the assay with COLO 205 colon; more than 100 µM in the assay on SNB-19 CNS; more than 46.4 µM in the assay on 786-0 renal; more than 90.4 µM in the assay with TK-10 renal. Moreover, the results for the TGI in the assay on NCI-H522 lung, in the assay on MDA-MB-435 and in the assay with SF-268 CNS were more than 100 µM, 36.7 µM and more than 78.4 µM, respectively.

Regarding `CC1=C(C)C(=O)O[C@@H]([C@](C)(O)[C@]2(O)CC[C@@]3(O)[C@@H]4C[C@H](O)[C@]5(O)[C@@H](O)C=CC(=O)[C@]5(C)[C@H]4CC[C@]23C)C1`, the TGI in the assay on HOP-62 NSCLC, with SNB-75 CNS, in the assay on COLO 205 colon, in the assay with SNB-19 CNS, in the assay on 786-0 renal and in the assay on TK-10 renal was more than 100 µM each time. Besides, the TGI with NCI-H522 lung, with MDA-MB-435 and in the assay on SF-268 CNS was more than 100 µM in each case.

With `O=C(NCCCl)Nc1cccnc1`, the TGI in the assay on HOP-62 NSCLC was more than 100 µM; in the assay with SNB-75 CNS, 63.1 µM; in the assay on COLO 205 colon, 51.3 µM; in the assay on SNB-19 CNS it was 80.4 µM; in the assay on NCI/ADR-RES ovarian it was 47.7 µM; in the assay on 786-0 renal, 39.9 µM. The TGI in the assay with TK-10 renal was 27.7 µM; with NCI-H522 lung, 62.1 µM; in the assay on MDA-MB-435, more than 100 µM.

Turning to `CC(C)(c1ccccc1)c1cc(O)c(C(C)(C)c2ccccc2)cc1O`, the GI50 in the assay on HOP-62 NSCLC was 3.06 µM; with SNB-75 CNS, 1.51 µM; in the assay on COLO 205 colon, 1.66 µM; with SNB-19 CNS, 2.91 µM; in the assay with NCI/ADR-RES ovarian, 2.7 µM; in the assay on 786-0 renal it was 2.67 µM. Moreover, the figures for the GI50 in the assay with NCI-H522 lung, in the assay with MDA-MB-435 and in the assay on SF-268 CNS were 3.67 µM, 1.43 µM and 2.99 µM, respectively. Further, the TGI in the assay on HOP-62 NSCLC is 13.4 µM; with SNB-75 CNS, 11.5 µM; in the assay with COLO 205 colon, 3.4 µM; in the assay with SNB-19 CNS, 12.1 µM; with NCI/ADR-RES ovarian, 12.1 µM; in the assay with 786-0 renal it was 9.38 µM. The TGI with NCI-H522 lung is 16.7 µM; in the assay with MDA-MB-435, 8.85 µM; with SF-268 CNS it was 12.8 µM.

On to `COc1ccc(C2CC(c3ccc(Nc4ccnc5cc(Cl)ccc45)cc3)=NN2C=O)cc1` (centres undefined), for which the GI50 with HOP-62 NSCLC was 43.7 µM; in the assay on SNB-75 CNS, more than 100 µM; in the assay on COLO 205 colon it was 3.56 µM; in the assay with SNB-19 CNS it was 56.5 µM; with NCI/ADR-RES ovarian it was 7.05 µM; with 786-0 renal, 32 µM. Further, the GI50 with TK-10 renal was 20.9 µM; in the assay on MDA-MB-435, 1.72 µM; in the assay on SF-268 CNS, more than 100 µM. For the same compound, the TGI with HOP-62 NSCLC, in the assay with SNB-75 CNS, in the assay with COLO 205 colon, with SNB-19 CNS, with NCI/ADR-RES ovarian and in the assay on 786-0 renal was more than 100 µM throughout. In addition, the TGI in the assay with TK-10 renal is 48.2 µM; in the assay on MDA-MB-435 it was 5.22 µM; with SF-268 CNS it was more than 100 µM.

In the case of `O=C(O)c1ccc(C(O)(c2ccccc2)c2ccccc2)cc1`, the TGI with HOP-62 NSCLC, in the assay on COLO 205 colon, in the assay on SNB-19 CNS, in the assay with NCI/ADR-RES ovarian, in the assay with 786-0 renal and with TK-10 renal was more than 100 µM in each case. For the same compound, the TGI in the assay on NCI-H522 lung, in the assay with MDA-MB-435 and in the assay with SF-268 CNS was more than 100 µM each time.

Turning to `COc1ccc(CCN(CC(=O)N(CC(N)=O)C2CCC[C@@H]2OCc2ccccc2)C(=O)CN(C(=O)CN(CCc2ccc(Cl)cc2)C(=O)CN(C(=O)CN(C)Cc2ccccc2F)[C@H](C)C2CCCCC2)[C@H](C)C2CCCCC2)cc1OC` (some centres undefined), the GI50 was 3.02 µM in the assay with HOP-62 NSCLC; 1.09 µM in the assay on SNB-75 CNS; 0.893 µM with COLO 205 colon; 1.64 µM in the assay on SNB-19 CNS; more than 50 µM in the assay on NCI/ADR-RES ovarian; 2.14 µM with 786-0 renal. Besides, the GI50 in the assay with NCI-H522 lung is 1.52 µM; in the assay with MDA-MB-435 it was 1.58 µM; in the assay with SF-268 CNS it was 1.29 µM. The TGI in the assay with HOP-62 NSCLC was more than 50 µM; in the assay on SNB-75 CNS it was more than 50 µM; in the assay on COLO 205 colon it was 2.4 µM; in the assay on SNB-19 CNS, more than 50 µM; in the assay with NCI/ADR-RES ovarian, more than 50 µM; with 786-0 renal, more than 50 µM. The TGI in the assay with NCI-H522 lung was 32.2 µM; with MDA-MB-435, more than 50 µM; with SF-268 CNS, more than 50 µM.
